Data published in patent EP3325465B1, “PESTICIDALLY ACTIVE PYRAZOLE DERIVATIVES” (Syngenta Participations AG, priority 2015, dated 2017).
Like-named read-outs stand apart in the source and are kept apart here.

Key:
Format in all cases: in vivo
[1] = system: Thrips tabaci (Onion thrips); experiment: Biological comparison b): insecticidal activity against Thrips tabaci, sunflower leaf discs; details: foliar, 144 h
Method: b) Insecticidal activity against Thrips tabaci (Onion thrips): Sunflower leaf discs were placed on agar in 24-well microtiter plates and sprayed with aqueous test solutions prepared from 10'000 ppm DMSO stock solutions. After drying the leaf discs were infested with a thrips population of mixed ages. The samples were assessed for mortality 6 days after infestation.

[2] = system: Spodoptera littoralis (Egyptian cotton leaf worm); experiment: Spodoptera littoralis cotton leaf disc spray test, L1 larvae; details: foliar, 72 h, application rate of 200 ppm, 3 days after infestation, L1 larvae, read-out: mortality
Summary of the method: (§1)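 Leaf discs on agar sprayed with aqueous dilutions of 10'000 ppm DMSO stocks, then infested after drying: Myzus persicae (sunflower, 200 ppm, mixed ages), mortality at 6 DAT; Thrips tabaci (sunflower, mixed ages), mortality at 6 days; Tetranychus urticae (bean, mixed ages), mobile-stage mortality at 8 days; Spodoptera littoralis (cotton), five L1 larvae per disc.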

[3] = system: Plutella xylostella (Diamond back moth); experiment: Plutella xylostella artificial diet test, L2 larvae; details: 120 h, application rate of 200 ppm, mortality and growth inhibition 5 days after infestation
Summary of the method: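 Artificial diet in 24-well microtiter plates was treated by pipetting with aqueous test solutions made from 10'000 ppm DMSO stock solutions. Once dry, each well received 10 to 15 second-instar (L2) Plutella xylostella larvae. Mortality and growth inhibition were scored against untreated samples 5 days after infestation.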

[4] = system: Diabrotica balteata, (Corn root worm); experiment: Diabrotica balteata maize sprout spray test, L2 larvae; details: 96 h, application rate of 200 ppm, 4 days after infestation, L2 larvae, read-out: mortality
Summary of the method: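 Test solutions in water, made from DMSO stock solutions at 10'000 ppm, were sprayed onto maize sprouts resting on an agar layer in 24-well microtiter plates. Once the treated sprouts had dried, each well was infested with 6 to 10 second-instar (L2) Diabrotica balteata corn rootworm larvae, and mortality was then scored as percent.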

[5] = system: Thrips tabaci (Onion thrips); experiment: Thrips tabaci sunflower leaf disc spray test; details: foliar, 144 h, application rate of 200 ppm, mortality 6 days after infestation, mixed ages
Summary of the method: as §1

[6] = system: Tetranychus urticae (Two-spotted spider mite); experiment: Tetranychus urticae bean leaf disc spray test; details: foliar, 192 h, application rate of 200 ppm, mortality on mixed population (mobile stages) 8 days after infestation
Summary of the method: as §1

[7] = system: Euschistus heros (Neotropical Brown Stink Bug); experiment: Euschistus heros soybean plant spray test, N2 nymphs; details: 120 h, application rate of 12.5 ppm, 5 days after infestation, N2 nymphs, read-out: mortality of Euschistus heros
Source text: (§2) The pesticidal/insecticidal properties of the compounds according to embodiments 1 or 2 can be illustrated via the following tests: Spodoptera littoralis (Egyptian cotton leaf worm) • Cotton leaf discs were placed onto agar in 24-well microtiter plates and sprayed with aqueous test solutions prepared from 10'000 ppm DMSO stock solutions. After drying the leaf discs were infested with five L1 larvae. […] Plutella xylostella (Diamond back moth): 24-well microtiter plates with artificial diet were treated with aqueous test solutions prepared from 10'000 ppm DMSO stock solutions by pipetting. After drying, the plates were infested with L2 larvae (10 to 15 per well). The samples were assessed for mortality and growth inhibition in comparison to untreated samples 5 days after infestation. […] Diabrotica balteata, (Corn root worm) • Maize sprouts placed onto an agar layer in 24-well microtiter plates were treated with aqueous test solutions prepared from 10'000 ppm DMSO stock solutions by spraying. After drying, the plates were infested with L2 larvae (6 to 10 per well). […] Thrips tabaci (Onion thrips): Sunflower leaf discs were placed on agar in 24-well microtiter plates and sprayed with aqueous test solutions prepared from 10'000 ppm DMSO stock solutions. After drying the leaf discs were infested with a thrips population of mixed ages. The samples were assessed for mortality 6 days after infestation. […] Tetranychus urticae (Two-spotted spider mite): Bean leaf discs on agar in 24-well microtiter plates were sprayed with aqueous test solutions prepared from 10'000 ppm DMSO stock solutions. After drying the leaf discs were infested with a mite population of mixed ages. The samples were assessed for mortality on mixed population (mobile stages) 8 days after infestation. […] Euschistus heros (Neotropical Brown Stink Bug): • Two weeks old soybean plants were sprayed in a turn table spray chamber with the diluted spray solutions. After drying 2 soybean seeds were added and plants were infested with 10 N2 nymphs of the neotropical brown stink bug Euschistus heros in plastic test boxes. The samples were assessed for mortality in comparison to untreated samples 5 days after infestation. • The following compounds gave at least 80% mortality of Euschistus heros at an application rate of 12.5 ppm: Compounds 3 , 4 , 8 , 39 , 43 , 44 , 46 , 75 , 76 , 77 , 78 , 79 , 80 , 81 , 82 , 88 , 90 , 93 and 95 . Myzus persicae (Green peach aphid): Sunflower leaf discs were placed on agar in a 24-well microtiter plate and sprayed with test solutions at an application rate of 200 ppm. After drying, the leaf discs were infested with an aphid population of mixed ages. After an incubation period of 6 DAT, samples were checked for mortality. The following compounds gave at least 50% mortality of Myzus persicae: Compounds 3 , 4 , 8 , 43 , 44 , 75 , 76 , 77 , 80 , 81 , 90 and 92 . Myzus persicae (Green peach aphid): • Test compounds were applied by pipette into 24 well plates and mixed with Sucrose solution. Application rate: 12.5ppm. The plates were closed with a stretched parafilm. A plastic stencil with 24 holes is placed onto the plate and infested pea seedlings were placed directly on the Parafilm. The infested plate is closed with a gel blotting paper and another plastic stencil and then turned upside down. […]

[8] = system: Myzus persicae (Green peach aphid); experiment: Myzus persicae sunflower leaf disc spray test; details: foliar, 144 h, application rate of 200 ppm, leaf disc spray, 6 DAT, read-out: mortality of Myzus persicae
Source text: as §2

[9] = system: Myzus persicae (Green peach aphid); experiment: Myzus persicae sucrose solution / Parafilm feeding test; details: 120 h, Application rate: 12.5ppm, sucrose solution, 5 days after infestation, read-out: mortality of Myzus persicae
Source text: as §2

[10] = system: Diabrotica balteata (Corn root worm); experiment: Biological comparison a): insecticidal activity against Diabrotica balteata, maize sprouts; details: 96 h, 4 days after infestation; for mortality at 0.195 ppm: Concentration 0.195 ppm; for mortality at 0.781 ppm: Concentration 0.781 ppm; for mortality at 3.12 ppm: Concentration 3.12 ppm; for mortality at 12.5 ppm: Concentration 12.5 ppm; for mortality at 50 ppm: Concentration 50 ppm
Source text: as §2

[11] = system: Spodoptera littoralis (Egyptian cotton leaf worm); experiment: Biological comparison c): insecticidal activity against Spodoptera littoralis, larvicide L-3, feeding/contact, soybean plants; details: 120 h, 5 days after infestation, L3 larvae; for mortality at 0.05 ppm: Concentration 0.05 ppm; for mortality at 0.2 ppm: Concentration 0.2 ppm; for mortality at 0.8 ppm: Concentration 0.8 ppm; for mortality at 3 ppm: Concentration 3 ppm; for mortality at 12.5 ppm: Concentration 12.5 ppm
Source text: c) Insecticidal activity against Spodoptera littoralis (Egyptian cotton leaf worm): (larvicide L-3, feeding/contact) Soybean plants are sprayed with diluted test solutions in an application chamber. The plants (2 replicates) are infested with 10 L3 larvae 1 day after treatment. Samples are checked 5 days after infestation for mortality, feeding behavior, and growth regulation.

Structure (SMILES) | mortality at 200 ppm [2] [%] | pest or weed control at 200 ppm [3] [%] | mortality at 200 ppm [4] [%] | pest or weed control at 200 ppm [5] [%] | pest or weed control at 200 ppm [6] [%] | mortality at 12.5 ppm [7] [%] | mortality at 200 ppm [8] [%] | mortality at 12.5 ppm [9] [%] | mortality at 0.195 ppm [10] [%] | mortality at 0.781 ppm [10] [%] | mortality at 3.12 ppm [10] [%] | mortality at 12.5 ppm [10] [%] | mortality at 50 ppm [10] [%] | mortality at 0.05 ppm [11] [%] | mortality at 0.2 ppm [11] [%] | mortality at 0.8 ppm [11] [%] | mortality at 3 ppm [11] [%] | mortality at 12.5 ppm [11] [%] | other results
Cn1nc(C(F)(F)C(F)(F)F)c(C(F)(F)F)c1-n1cc(-c2ccc(Cl)c(C(=O)NC3(C#N)CC3)c2)cn1 [B, reference compound] | – | – | – | – | – | – | – | – | – | – | – | – | – | – | – | – | – | – | mortality at 0.781 ppm [1]: 0%; mortality at 3.12 ppm [1]: 25%; mortality at 12.5 ppm [1]: 90%; mortality at 50 ppm [1]: 100%; mortality at 200 ppm [1]: 100%
Cn1nc(C(F)(F)C(F)(F)F)c(C(F)(F)F)c1-c1cc(-c2ccc(Cl)c(C(=O)NC3(C#N)CC3)c2)on1 [Compound 4, 2-chloro-N-(1-cyanocyclopropyl)-5-[3-[2-methyl-5-(1,1,2,2,2-pentafluoroethyl)-4-(trifluoromethyl)pyrazol-3-yl]isoxazol-5-yl]benzamide] | ≥ 80 | ≥ 80 | ≥ 80 | ≥ 80 | ≥ 80 | ≥ 80 | ≥ 50 | ≥ 80 | 100 | 100 | 100 | 100 | 100 | – | – | – | – | – | mortality at 0.781 ppm ([1]; Concentration 0.781 ppm, 6 days after infestation, read-out: Mortality (%)): 50%; mortality at 3.12 ppm ([1]; Concentration 3.12 ppm, 6 days after infestation, read-out: Mortality (%)): 65%; mortality at 12.5 ppm ([1]; Concentration 12.5 ppm, 6 days after infestation, read-out: Mortality (%)): 80%; mortality at 50 ppm ([1]; Concentration 50 ppm, 6 days after infestation, read-out: Mortality (%)): 100%; mortality at 200 ppm ([1]; Concentration 200 ppm, 6 days after infestation, read-out: Mortality (%)): 100%
Cn1nc(C(F)(F)C(F)(F)F)c(C(F)(F)F)c1-c1cc(-c2ccc(Cl)c(C(=O)NC3(C#N)CC3)c2)sn1 [Compound 44, 2-chloro-N-(1-cyanocyclopropyl)-5-[3-[2-methyl-5-(1,1,2,2,2-pentafluoroethyl)-4-(trifluoromethyl)pyrazol-3-yl]isothiazol-5-yl]benzamide] | ≥ 80 | ≥ 80 | ≥ 80 | ≥ 80 | ≥ 80 | ≥ 80 | ≥ 50 | ≥ 80 | – | – | – | – | – | 0 | 0 | 50 | 95 | 100 | –
Cn1nc(C(F)(F)C(F)(F)F)c(C(F)(F)F)c1-n1cc(-c2ccc(Cl)c(C(=O)NC3(C#N)CC3)c2)nn1 [Compound A, reference compound] | – | – | – | – | – | – | – | – | 0 | 0 | 100 | 100 | 100 | 0 | 0 | 0 | 60 | 100 | –
